This note sets out measurements from patent US10858479B2, “Y-type discrete polyethylene glycol derivative and preparation method thereof” (JenKem Technology Co., Ltd. (Beijing), priority 2015, dated 2020).

Where two headings read alike, the source gives them in different places.

Data set [1] can be described thus: Comparison test of solubility of derivatives in water.
Description: 20.0 mg cholesterol derivative of (l) prepared in Example 7 was dispersed in 50 mL water, 5 mL was taken out therefrom and added with 1.5 mL water, the resulting mixture was placed in a 20° C. water bath, and shaken vigorously for 30 s every 5 min.
24.2 mg cholesterol derivative of mEG7-OH prepared in Example 8 was dispersed in 50 mL of water, 5 mL was taken out therefrom and added with 5 mL water, the resulting mixture was shaken vigorously for 30 s every 5 min.
111.0 mg the hexadecanol derivative of (1) prepared in Example 7 was dispersed in 25 μL of water and shaken vigorously for 30 s every 5 min.
112.9 mg the hexadecanol derivative of mEG7-OH prepared in Example 8 was dispersed in 50 μL of water and shaken vigorously for 30 s every 5 min.
101.3 mg the menthol derivative of mEG7-OH prepared in Example 8 was dispersed in 50 μL of water and vigorously shaken for 30 s every 5 min. After 30 min, the solution was turbid; another 50 μL of water was added, the resulting mixture was vigorously shaken for 30 s every 5 min.
Data set [2] in a line: Comparison test of dispersibility of cholesterol and cholesterol derivatives in water. The data set is classed as physicochemical. Conditions: 20 mg in 50 mL water, 20° C. water bath, FIG. 7.

As to `CC(C)CCC[C@@H](C)[C@H]1CC[C@H]2[C@@H]3CC=C4C[C@@H](O)CC[C@]4(C)[C@H]3CC[C@]12C` [cholesterol], the solubility in data set [1] is listed as < 0.2 mg/100 g H2O; in data set [1] (listed as Cholesterol) it was <0.2 mg/100 g H2O. For the same molecule, the “disperse state in water” value in data set [2] is “completely insoluble”.

`CCCCCCCCCCCCCCCCO` [hexadecanol]: the solubility in data set [1] is listed as < 1 mg/100 g H2O; in data set [1] (listed as Hexadecanol), <1 mg/100 g H2O.

Regarding `CC1CCC(C(C)C)C(O)C1` (centres unmarked) [menthol], the figures for the solubility in data set [1] and in data set [1] (listed as Menthol) were < 100 mg/100 g H2O and <100 mg/100 g H2O, respectively.

For `COCCOCCOCCOCCOCCOCCOCCOC(=O)O[C@H]1CC[C@@]2(C)C(=CC[C@H]3[C@@H]4CC[C@H]([C@H](C)CCCC(C)C)[C@@]4(C)CC[C@@H]32)C1` [cholesterol derivative of mEG7-OH], the “disperse state in water” value in data set [2] is “white emulsion”.
